# In patent EP0003920A1, “Thieno (3,2-c)- and thieno (2,3-c)pyridines, process for their preparation and their therapeutical application” (OMNIUM FINANCIER AQUITAINE POUR L'HYGIENE ET LA SANTE - …, priority 1978, dated 1979):
# How the values were obtained:
# [1] = Acute toxicity, intravenous LD50 (method of Miller and Tainter); parameters: species or system souris; conditions: mouse, in vivo, read-out: DL50/24 H/kg de poids corporel
# Protocol: En ce qui concerne la toxicité aigüe, la DL50/24 H/kg de poids corporel, déterminée chez la souris selon la méthode de Miller et Tainter pour la voie orale est supérieure à 400 mg pour tous les dérivés.
# Selon la même méthode, la DL50/24 H/kg de poids corporel déterminée par la vole intraveineuse est, par exemple, de 154 mg pour le dérivé N° 1, de 89 mg pour le dérivé N° 2, de 184mg pour le dérivé N° 10, de 130 mg pour le dérivé N° 11, de 350mg pour le dérivé N° 12, de 65 mg pour le dérivé N° 18, de 90 mg pour le dérivé N° 22, de 96 mg pour le dérivé N° 24 et de 105 mg pour le dérivé N° 31.
# [2] = tested on: rat; assay: Localised carrageenan-induced oedema; format: in vivo; conditions: 100 mg/kg oral at -1 h, 0 h, +2.5 h
# Protocol: Une solution de carragénine (0,1 ml), à 1 %, est injectée dans les fléchisseurs métatarsiens de la patte postérieure droite du rat au temps 0. Les animaux du lot traité reçoivent en outre, par la voie orale, 100 mg par kg du dérivé à tester respectivement 1 heure avant, en même temps que l'injection de l'agent phlogogène, puis 1 heure et 2 heures et demi après. Les mesures qui sont effectuées à l'aide du micromètre de ROGH au temps 0, 1 heure, 2 heures, 3 heures et 5 heures après l'administration de la carragénine permettent de déterminer, en fonction du temps, le pourcentage d'activité anti-inflammatoire, par comparaison avec le lot témoin.
# [3] = tested on: rat; assay: Generalised ovalbumin oedema; format: in vivo; conditions: po, 100 mg/kg per os 1 h before and together with ovalbumin
# Protocol: Une injection intrapéritonéale simultanée de 1 ml d'ovalbumine et de 0,5 ml d'une solution aqueuse de bleu Evans à 1% est effectuée sur le rat. D'autre part, on administre per os aux animaux du lot traité 100 mg/kg du dérivé à tester une heure avant et en même temps que l'ovalbumine. L'intensité du phénomène ainsi provoqué est notée par un chiffre allant de 1 à 5 suivant la progression du syndrome inflammatoire. On détermine ainsi la moyenne de l'intensité oedémateuse et le pourcentage de diminution de la réaction oedémateuse par rapport au témoin, en fonction du temps.
# [4] = tested on: souris; assay: Potentiation of an infra-hypnotic dose of sodium pentobarbital; format: in vivo; conditions: mouse, 100 mg/kg oral, 30 min before i.p. infra-hypnotic dose of sodium pentobarbital; control 0
# Protocol: Les composés de l'invention potentialisent de façon très nette l'action des hypnotiques. En effet, administrés à différents lots de souris par la voie orale, à la dose de 100 mg/ kg, trente minutes avant l'injection intrapéritonéale d'une dose infra-hypnotique de pentobarbital sodique, ils produisent par rapport aux animaux témoins non traités, une nette poten- tialisation de l'action du barbiturique.
# En effet, le nombre de souris endormies, le temps moyen d'endormissement et la durée du sommeil sont nettement accrus dans les lots traités. Les résultats des composés les plus actifs sont rassemblés dans le Tableau I suivant.
# [5] = tested on: rat; assay: Anticonvulsant action against electroshock; format: in vivo; conditions: 100 mg/kg oral, electroshock 30 min after treatment, score 0 to 4, untreated controls 4
# Protocol: Cette action a été étudiée vis-à-vis des électrochocs. L'application chez le rat d'une stimulation électrique supérieure au seuil électro-convulsivant provoque des convulsions expérimentales. On compare alors chez les animaux témoins et chez les animaux traités, à la fois la présence et la durée de chacune des phases convulsives et l'intensité de la crise dans son ensemble.
# On établit des séries de 10 rats par produit à tester et on administre par la voie orale, à chaque animal, 100 mg/kg de ce produit.
# De chaque côté de la base de la queue de chaque […], une électrode Cat mise en place et 30 minutes après le traitement, l'animal placé dans une enceinte de verre reçoit pendant 50 millisecondes un courant sinusoïdal de 50 périodes/secondes de 120 volts.
# Le passage du courant déclenche une crise convulsive dont chacune des phases (tonique, clonique, relachement musculaire) est chronométrée. L'intensité de la crise est alors notée de 0 à 4 selon la présence de chacune des phases et leur durée. Les produits de l'invention sont testés comparativement au phénobarbital qui possède une action anti-convulsivante marquée (intensité de la crise = 2), alors que chez les animaux témoins non traités c'est l'intensité maxima de 4 qui est obtenue.
# [6] = 1 h after carrageenan, read-out: Pourcentage d'activité anti-inflammatoire 1ère heure
# [7] = 2 h after carrageenan, read-out: Pourcentage d'activité anti-inflammatoire 2ème heure
# [8] = 3 h after carrageenan, read-out: Pourcentage d'activité anti-inflammatoire 3ème heure
# [9] = 5 h after carrageenan, read-out: Pourcentage d'activité anti-inflammatoire 5ème heure
# [10] = 2 h after ovalbumin injection, read-out: Pourcentage d'activité anti-inflammatoire 2ème heure
# [11] = 3 h after ovalbumin injection, read-out: Pourcentage d'activité anti-inflammatoire 3ème heure
Compound,LD50 at 24 h [1],"inhibition in vivo at 100 mg/kg [2, 6]","inhibition in vivo at 100 mg/kg [2, 7]","inhibition in vivo at 100 mg/kg [2, 8]","inhibition in vivo at 100 mg/kg [2, 9]","inhibition in vivo at 100 mg/kg [3, 10]","inhibition in vivo at 100 mg/kg [3, 11]",Pourcentage d'animaux endormis [4],valeurs moyennes de l'intensité des crises [5]
"CNC(=O)c1cc2sccc2cn1 [Dérivé 1, Méthylaminocarbonyl-6 thiéno [3,2-c] pyridine]",154 mg/kg,35%,42%,46%,47%,48%,56%,70%,"2,5"
"CCN(CC)CCNC(=O)c1cc2sccc2cn1 [Dérivé 18, β-diéthylaminoéthylaminocarbonyl-6 thiéno [3,2-c] pyridine]",65 mg/kg,41%,46%,50%,55%,49%,58%,80%,–
"O=C(NCc1ccncc1)c1cc2sccc2cn1 [Dérivé 22, (pyridyl-4 méthyl)aminocarbonyl-6 thiéno[3,2-c]pyridine]",90 mg/kg,41%,47%,51%,55%,51%,58%,70%,–
"NC(=O)c1cc2sccc2cn1 [Dérivé 31, carbamoyl-6 thiéno [3,2-C] pyridine]",105 mg/kg,–,–,–,–,–,–,–,"2,5"
